{
  "source": "patent US20070274947A1",
  "about": "“Antisense Oligonucleotides Directed to Ribonucleotide Reductase R1 and Uses Thereof in the Treatment of Cancer” (priority 2003, published 2007)",
  "key": {"[1]": {"assay": "Acute intravenous toxicity study in the monkey (24-hour infusion, escalating doses)", "format": "in vivo, Cynomolgus monkeys", "procedure": "The objective of this single, dose escalating study was to establish a maximum tolerated dose (MTD) for SEQ ID NO:1 and to assess the effect of administered SEQ ID NO:1 on the cardiac function of conscious Cynomolgus monkeys. […] There was a 3-day washout between doses. One female animal, administered vehicle only (PBS) in the same manner, was used as a control. Electrocardiogram (ECG) measurements were conducted on each animal (including control) prior to, during and after the end of each infusion interval. Clinical signs, mortality, body weight and food consumption measurements, hematology, coagulation and clinical chemistry parameter evaluations, were recorded and evaluated. In addition, blood samples were removed prior to and at the end of each infusion interval to measure complement (CH50 and Bb). Blood samples were also drawn at the end of each infusion for analysis of parent, SEQ ID NO:1."}, "Hep G2 (liver)": {"tested_on": "Hep G2 (liver)", "assay": "Colony forming ability, Hep G2", "format": "cell-based, human", "conditions": "0.2 μM antisense oligonucleotide/lipofectin, 4 hours", "procedure": "The effect of SEQ ID NO:1 on the colony forming ability were evaluated in the following human tumor cell lines:\nTumor cells were washed in 5 ml of phosphate buffered saline, pH 7.2, prior to 0.2 μM antisense oligonucleotide/lipofectin treatment for 4 hours. The medium was removed and the cells were gently washed with 5 ml of growth medium. The cells were then cultured in growth medium for seven to ten days. Surviving colonies were visualized by methylene blue staining and colonies of 50 or more cells were scored (Choy et al., 1988 and Huang and Wright, 1994). Results are summarized from 4 to 8 trials for each tumor cell line."}, "R1 protein": {"tested_on": "R1 protein", "assay": "Immunoprecipitation of newly synthesized R1 protein in AsPC-1 cells", "format": "cell-based, human", "conditions": "0.2 μM, 4 hours", "procedure": "Immunoprecipitation was performed using a saturating amount of AD203 anti-R1 monoclonal antibody as previously described (Choy et al., 1988). Human tumor cells, AsPC-1 (pancreatic adenocarcinoma), were exposed for 4 hours to SEQ ID NO:1, SEQ ID NO:1 M is (a SEQ ID NO:1 sequence containing four base mismatch) or SEQ ID NO:1 Scr (a sequence with the same ratio of ACTG as the SEQ ID NO:1 sequence but scrambled). Cells were then washed and labeled with ^35S-methionine for 4-7 hours. R1 protein was specifically immunoprecipitated with R1 antibody from cell lysate, resolved on sodium dodecyl sulfate-polyacrylamide gels and analyzed by autoradiography."}, "[2]": {"assay": "Phase I study, 14-day continuous intravenous infusion in patients with solid tumors or lymphoma", "procedure": "To determine the maximal tolerated dose (MTD) and recommended Phase II dose of SEQ ID NO:1 in patients with solid tumors or lymphoma when administered as a 14-day continuous intravenous infusion.\nSafety: Adverse events and laboratory evaluation. Dosage Selection and Dosing Interval:\nThe starting dose in the Phase I dose-escalation study is 6.0 mg/m^2/day (approximately 0.16 mg/kg/day) infused over 14 days.\nDLT Definition: • Grade 4 neutropenia associated with fever or lasting 3 days or longer. • Platelet count <25,000 μl. • Any ≧ grade 3 coagulation abnormality (defined by PT and aPTT values). • Clinical hemorrhage ≧ grade 1. • Nausea/vomiting ≧ grade 3 despite maximal antiemetic therapy; diarrhea ≧ grade 3 despite maximal anti-diarrheal therapy. • Any other non-hematological toxicity ≧grade 3 with the exception of alopecia Interim Evaluation Status:\nPreliminary evaluability assessment was performed. In the Phase I open label single arm study, SEQ ID NO:1 was administered in daily doses escalating from 6.0 mg/m^2 to 210.9 mg/m^2 in patients with solid tumors or lymphoma. SEQ ID NO:1 was administered as monotherapy by ambulatory intravenous infusion for 14 days in each 21 day cycle. […] Expected toxicities for agents in the same class as SEQ ID NO:1, phosphorothioate oligonucleotides, include fatigue, prolonged coagulation (PT/aPITI) times and elevated transaminase ALT/AST) levels."}, "[3]": {"tested_on": "MDA-CDDP-S4 human in vivo-selected Cisplatin-resistant breast adenocarcinoma cells", "assay": "Cisplatin-resistant breast adenocarcinoma MDA-CDDP-S4 growth in SCID mice", "procedure": "MDA-CDDP-S4 human in vivo-selected Cisplatin-resistant breast adenocarcinoma cells MDA231/CDDPs4) (4×10^6 cells in 100 μl of PBS) were injected into the fat pad (inside of right leg) of 6-7 weeks old female SCID mice. After the size of tumor reached an approximate volume of 100 mm^3, 7-9 days post tumor cell injection, SEQ ID NO:1 was administered by bolus infusion into the tail vein every other day at 10 mg/kg. Control animals received saline alone for the same period. Antitumor effect of SEQ ID NO:1 was further compared to that of Cisplatin or Taxol alone (FIG. 14A) and in combination as indicated in the FIGS. 14B, 14C and 14D. Cisplatin was administered intravenously once a week for three weeks at a dose of 4 mg/kg. Taxol was administered intravenously once a week for three weeks at a dose of 10 mg/kg. Antitumor activities were estimated by the inhibition of tumor volume, which was measured with caliper and each point represents mean tumor volume calculated from 10 animals per experimental group (FIG. 14C). At the end of the study animals were sacrificed, tumor weights taken and mean tumor weights are indicated. […] As expected, treatment with Cisplatin during the same period was ineffective against Cisplatin-resistant tumor."}, "[4]": {"conditions": "rat, in vivo"}, "[5]": {"conditions": "cynomolgus monkey, in vivo"}, "[6]": {"conditions": "monkey, in vivo"}, "[7]": {"assay": "Repeat dose 14-day toxicity study in monkeys (Part 1)", "conditions": "monkey"}},
  "note": "“Also recorded” adds a separate entry of the source.",
  "data": [
    {"substance": "5′-CTCTAGCGTCTTAAAGCCGA-3′ (CTCTAGCGTCTTAAAGCCGA; chemistry not given here) [SEQ ID NO:1]", "values": [
      {"measurement": "complement values", "setting": "[1]; 80 mg/kg, one animal (female)", "result": "outside the normal range (higher Bb and lower CH50)"},
      {"measurement": "ECG recordings and blood pressure", "setting": "[1]; 10-80 mg/kg", "result": "no treatment-related effects"},
      {"measurement": "deaths, clinical signs, body weight, food consumption", "setting": "[1]; 24-hour infusions of 10, 20, 40 and 80 mg/kg", "result": "no deaths, clinical signs, body weight changes, or effects on food consumption"},
      {"measurement": "plasma concentrations at the end of infusion", "setting": "[1]; escalating doses 10-80 mg/kg", "result": "increased with escalating dose levels"},
      {"measurement": "activated partial thromboplastin times", "setting": "[1]; following the last dose (Day 14), all values within normal ranges", "result": "apparent increasing trend"},
      {"measurement": "complement Bb and CH50 values", "setting": "[1]; up to 40 mg/kg", "result": "within the reference range"},
      {"measurement": "inhibition in colony forming ability", "setting": "Hep G2 (liver)", "result": "greater than 60%"},
      {"measurement": "R1 protein expression (synthesis)", "setting": "R1 protein", "result": "specifically decreases R1 protein expression; also recorded: dramatically decreased; also recorded: specifically inhibit the expression of R1 protein"},
      {"measurement": "drug related serious adverse events", "setting": "[2]; human, in vivo", "result": "no drug related serious adverse events"},
      {"measurement": "tolerability", "setting": "[2]; human, in vivo", "result": "well tolerated"},
      {"measurement": "additional sporadic toxicities considered possibly related to study therapy", "setting": "[2]; interim evaluation", "result": "Grade 3 hypokalemia, Grade 3 increased blood alkaline phosphatase and Grade 3 diarrhea"},
      {"measurement": "patients with Grade 3 fatigue", "setting": "[2]; interim evaluation", "result": "Two patients"},
      {"measurement": "patients with Grade 3 increased ALT", "setting": "[2]; interim evaluation", "result": "three patients"},
      {"measurement": "patients with Grade 3 increased AST", "setting": "[2]; interim evaluation", "result": "one patient"},
      {"measurement": "patients with prolonged aPTT", "setting": "[2]; interim evaluation", "result": "one patient"},
      {"measurement": "maximum tolerated dose (MTD)", "setting": "[2]; patients, no MTD seen up to and including this dose, interim", "result": "≥ 210.9", "unit": "mg/m^2/day"},
      {"measurement": "tumor weight / tumor growth", "setting": "[3]; SCID mice, fat pad, SEQ ID NO:1 10 mg/kg every other day, Cisplatin 4 mg/kg, Taxol 10 mg/kg i.v. weekly for three weeks", "result": "significant reduction of tumor weight"},
      {"measurement": "delay in tumor growth compared with Taxol", "setting": "[3]; Taxol 10 mg/kg weekly as positive control", "result": "superior to the inhibitory effects observed with Taxol"},
      {"measurement": "elimination from plasma (profile)", "setting": "[4]", "result": "biphasic"},
      {"measurement": "measurable in plasma post dose", "setting": "[4]", "result": "up to 24 h"},
      {"measurement": "plasma levels (AUC and Cmax) versus dose", "setting": "[4]", "result": "increased in proportion to administered dose"},
      {"measurement": "time of Cmax / maximum concentration post dose", "setting": "[4]; iv", "result": 5, "unit": "min"},
      {"measurement": "apparent terminal elimination phase t1/2", "setting": "[4]; iv, 50 mg/kg", "result": "4.72 to 5.80", "unit": "h"},
      {"measurement": "plasma clearance", "setting": "[4]; iv, 50 mg/kg", "result": "49.67-43.30 mL/kg·h"},
      {"measurement": "Cmax and AUC estimates versus dose", "setting": "[5]", "result": "proportional with the administered dose"},
      {"measurement": "mean Cl, high dose group compared to low dose group", "setting": "[5]", "result": "slightly increased mean Cl value"},
      {"measurement": "mean elimination t1/2, high dose group compared to low dose group", "setting": "[5]", "result": "significantly larger mean elimination t1/2"},
      {"measurement": "sex differences in pharmacokinetics", "setting": "[5]", "result": "no clear observed sex differences"},
      {"measurement": "levels in the brain", "setting": "[6]", "result": "very low or below the limits of detection"},
      {"measurement": "tissue concentrations, rank order", "setting": "[6]", "result": "kidney>liver>spleen>lymph node (monkey)>lung (monkey)>heart"},
      {"measurement": "tissue levels upon discontinuation of treatment", "setting": "[6]", "result": "decreased over time"},
      {"measurement": "deaths, clinical signs, appetite, ophthalmology, cardiology, hematology, organ weights", "setting": "[7]; 14-day infusion up to 40 mg/kg/day", "result": "no deaths, no treatment-related clinical signs, effects on appetite, ophthalmology effects, cardiology, hematology effects, or changes in organ weights"},
      {"measurement": "toxicity", "setting": "[7]; continuously for 14 days at 10 mg/kg/day (123 mg/m^2/day)", "result": "Minimal and reversible toxicity"}
    ]}
  ]
}
